Measured values: US20260265251A1 (priority 2023, published 2026)
pIC50: −log10 of the molar value.

Tests used:
[1] = tested on: A2058 cells; assay: A2058 cell proliferation assay; assay type: cell-based; settings: Homo sapiens, 96 hours, CellTiter-Glo
[2] = tested on: SK-MEL-3 cells; assay: SK-MEL-3 cell proliferation assay; assay type: cell-based; settings: Homo sapiens, SK-MEL3; SK-MEL-3 cells, 72 hours, CellTiter-Glo; read-out: SK-MEL-3 IC50

Row | SMILES | pIC50 [1] | pIC50 [2]
1 | O=c1[nH]c2cc3c(nc2[nH]1)CCN(c1ccc(F)cc1Cl)C3 [Example 21, 7-(2-chloro-4-fluorophenyl)-1,3,5,6,7,8-hexahydro-2H-imidazo[4,5-b][1,6]naphthyridin-2-one] | 7.42 | 8.35
2 | Cc1c(-c2ccc3nc4[nH]c(=O)[nH]c4cc3c2)cnn1C(F)F [Example 44, 7-(1-(difluoromethyl)-5-methyl-1H-pyrazol-4-yl)-1,3-dihydro-2H-imidazo[4,5-b]quinolin-2-one] | 9.77 | 10.15
3 | O=c1[nH]c2cc3cc(-c4ccc(C(F)F)nc4Cl)ccc3nc2[nH]1 [Example 35, 7-(2-chloro-6-(difluoromethyl)pyridin-3-yl)-1,3-dihydro-2H-imidazo[4,5-b]quinolin-2-one] | 8.28 | 9.22
4 | O=c1[nH]c2cc3cc(-c4cnn(C(F)F)c4Cl)ccc3nc2[nH]1 [Example 13, 7-(5-chloro-1-(difluoromethyl)-1H-pyrazol-4-yl)-1,3-dihydro-2H-imidazo[4,5-b]quinolin-2-one] | 10.00 | 10.52
5 | O=c1[nH]c2cc3cc(-c4ccc(C(F)(F)F)nc4Cl)ccc3nc2[nH]1 [Example 17, 7-(2-chloro-6-(trifluoromethyl)pyridin-3-yl)-1,3-dihydro-2H-imidazo[4,5-b]quinolin-2-one] | 7.96 | 8.96
6 | N#Cc1ccc(N2CCc3nc4[nH]c(=O)[nH]c4cc3C2)c(Cl)c1 [Example 22, 7-(2-chloro-4-cyanophenyl)-1,3,5,6,7,8-hexahydro-2H-imidazo[4,5-b][1,6]naphthyridin-2-one] | 7.92 | 8.80
7 | O=c1[nH]c2cc3c(nc2[nH]1)CCN(c1ccc(C(F)(F)F)nc1Cl)C3 [Example 48, 7-(2-chloro-6-(trifluoromethyl)pyridin-3-yl)-1,3,5,6,7,8-hexahydro-2H-imidazo[4,5-b][1,6]naphthyridin-2-one] | 7.13 | 8.28
8 | O=c1[nH]c2cc3cc(-c4cnn(C(F)F)c4C(F)(F)F)ccc3nc2[nH]1 [Example 30, 7-(1-(difluoromethyl)-5-(trifluoromethyl)-1H-pyrazol-4-yl)-1,3-dihydro-2H-imidazo[4,5-b]quinolin-2-one] | 9.05 | 10.00
9 | [2H]C([2H])([2H])Oc1nc(Cl)ccc1-c1ccc2nc3[nH]c(=O)[nH]c3cc2c1 [Example 28, 7-(6-chloro-2-(methoxy-d3)pyridin-3-yl)-1,3-dihydro-2H-imidazo[4,5-b]quinolin-2-one] | 8.10 | 8.96
10 | O=c1[nH]c2cc3c(nc2[nH]1)CCN(c1cccc(C(F)(F)F)n1)C3 [Example 58, 7-(6-(trifluoromethyl)pyridin-2-yl)-1,3,5,6,7,8-hexahydro-2H-imidazo[4,5-b][1,6]naphthyridin-2-one] | 8.92 | 9.52
11 | O=c1[nH]c2cc3c(nc2[nH]1)CCN(c1cnn(C(F)F)c1Cl)C3 [Example 50, 7-(5-chloro-1-(difluoromethyl)-1H-pyrazol-4-yl)-1,3,5,6,7,8-hexahydro-2H-imidazo[4,5-b][1,6]naphthyridin-2-one] | 8.12 | 8.92
12 | O=c1[nH]c2cc3cc(-c4nn(C(F)F)cc4Cl)ccc3nc2[nH]1 [Example 15, 7-(4-chloro-1-(difluoromethyl)-1H-pyrazol-3-yl)-1,3-dihydro-2H-imidazo[4,5-b]quinolin-2-one] | 8.41 | 9.15
13 | O=c1[nH]c2cc3cc(-c4ccc(Cl)nc4OC(F)F)ccc3nc2[nH]1 [Example 39, 7-(6-chloro-2-(difluoromethoxy)pyridin-3-yl)-1,3-dihydro-2H-imidazo[4,5-b]quinolin-2-one] | 8.48 | 
14 | CNc1nc(Cl)ccc1-c1ccc2nc3[nH]c(=O)[nH]c3cc2c1 [Example 41, 7-(6-chloro-2-(methylamino)pyridin-3-yl)-1,3-dihydro-2H-imidazo[4,5-b]quinolin-2-one] | 7.21 | 
15 | O=c1[nH]c2cc3cc(-c4ccc(C(F)F)cc4Cl)ccc3nc2[nH]1 [Example 36, 7-(2-chloro-4-(difluoromethyl)phenyl)-1,3-dihydro-2H-imidazo[4,5-b]quinolin-2-one] | 8.28 | 9.05
16 | O=c1[nH]c2cc3c(Cl)c(-c4cn(C(F)F)nc4Cl)ccc3nc2[nH]1 [Example 87, 8-chloro-7-(3-chloro-1-(difluoromethyl)-1H-pyrazol-4-yl)-1,3-dihydro-2H-imidazo[4,5-b]quinolin-2-one] | 8.70 | 
17 | O=c1[nH]c2cc3c(nc2[nH]1)CC[C@H](c1cnn(C(F)F)c1Cl)C3 (single isomer, unassigned) [Example 64-A, (*S)-7-(5-chloro-1-(difluoromethyl)-1H-pyrazol-4-yl)-1,3,5,6,7,8-hexahdro-2H-imidazo[4,5-b]quinolin-2-one] | 9.54 | 10.40

Row | SMILES | pIC50 [1] | pIC50 [2]
18 | O=c1[nH]c2cc3cc(-c4cnn(C(F)F)c4Cl)c(Cl)cc3nc2[nH]1 [Example 88, 6-chloro-7-(5-chloro-1-(difluoromethyl)-1H-pyrazol-4-yl)-1,3-dihydro-2H-imidazo[4,5-b]quinolin-2-one] | 8.04 | 
19 | O=c1[nH]c2cc3cc(-c4cnn(C(F)F)c4OC(F)F)ccc3nc2[nH]1 [Example 42, 7-(5-(difluoromethoxy)-1-(difluoromethyl)-1H-pyrazol-4-yl)-1,3-dihydro-2H-imidazo[4,5-b]quinolin-2-one] | 9.40 | 
20 | O=c1[nH]c2cc3cc(-c4ccc(F)cc4Cl)ccc3nc2[nH]1 [Example 3, 7-(2-chloro-4-fluorophenyl)-1,3-dihydro-2H-imidazo[4,5-b]quinolin-2-one] | 8.92 | 9.30
21 | O=c1[nH]c2cc3cc(-c4onc(C(F)F)c4Cl)ccc3nc2[nH]1 [Example 34, 7-(4-chloro-3-(difluoromethyl)isoxazol-5-yl)-1,3-dihydro-2H-imidazo[4,5-b]quinolin-2-one] | 9.72 | 10.05
22 | [2H]C([2H])([2H])c1c(-c2ccc3nc4[nH]c(=O)[nH]c4cc3c2)cnn1C(F)F [Example 45, 7-(1-(difluoromethyl)-5-(methyl-d3)-1H-pyrazol-4-yl)-1,3-dihydro-2H-imidazo[4,5-b]quinolin-2-one] | 9.72 | 
23 | O=c1[nH]c2cc3c(nc2[nH]1)CCC(c1cnn(C(F)F)c1Cl)C3 (racemic) [Example 64, 7-(5-chloro-1-(difluoromethyl)-1H-pyrazol-4-yl)-1,3,5,6,7,8-hexahydro-2H-imidazo[4,5-b]quinolin-2-one] | 9.40 | 10.10
24 | O=c1[nH]c2cc3c(nc2[nH]1)CCN(c1ccc(Cl)nc1C(F)(F)F)C3 [Example 62, 7-(6-chloro-2-(trifluoromethyl)pyridin-3-yl)-1,3,5,6,7,8-hexahydro-2H-imidazo[4,5-b][1,6]naphthyridin-2-one] | 7.50 | 
25 | O=c1[nH]c2cc3cc(-c4cnn(C(F)F)c4Br)ccc3nc2[nH]1 [Example 32, 7-(5-bromo-1-(difluoromethyl)-1H-pyrazol-4-yl)-1,3-dihydro-2H-imidazo[4,5-b]quinolin-2-one] | 9.52 | 10.30
26 | O=c1[nH]c2cc3cc(-c4ncn(C(F)F)c4Cl)ccc3nc2[nH]1 [Example 37, 7-(5-chloro-1-(difluoromethyl)-1H-imidazol-4-yl)-1,3-dihydro-2H-imidazo[4,5-b]quinolin-2-one] | 9.00 | 
27 | O=c1[nH]c2cc3c(Cl)c(-c4ccc(F)cn4)ccc3nc2[nH]1 [Example 24, 8-chloro-7-(5-fluoropyridin-2-yl)-1,3-dihydro-2H-imidazo[4,5-b]quinolin-2-one] | 8.57 | 9.05
28 | O=c1[nH]c2cc3c(nc2[nH]1)CCN(c1nc(C(F)(F)F)ccc1F)C3 [Example 60, 7-(3-fluoro-6-(trifluoromethyl)pyridin-2-yl)-1,3,5,6,7,8-hexahydro-2H-imidazo[4,5-b][1,6]naphthyridin-2-one] | 8.77 | 
29 | N#Cc1ccc(-c2ccc3nc4[nH]c(=O)[nH]c4cc3c2)c(Cl)c1 [Example 14, 7-(2-chloro-4-cyanophenyl)-1,3-dihydro-2H-imidazo[4,5-b]quinolin-2-one] | 8.96 | 9.52
30 | [2H]C([2H])([2H])Oc1ccc(-c2ccc3nc4[nH]c(=O)[nH]c4cc3c2)c(Cl)n1 [Example 27, 7-(2-chloro-6-(methoxy-d3)pyridin-3-yl)-1,3-dihydro-2H-imidazo[4,5-b]quinolin-2-one] | 7.69 | 8.51
31 | O=c1[nH]c2cc3c(Cl)c(-c4cnn(C(F)F)c4Cl)ccc3nc2[nH]1 [Example 86, 8-chloro-7-(5-chloro-1-(difluoromethyl)-1H-pyrazol-4-yl)-1,3-dihydro-2H-imidazo[4,5-b]quinolin-2-one] | 9.05 | 10.05
32 | O=c1[nH]c2cc3c(nc2[nH]1)CCN(c1ncc(F)cc1Cl)C3 [Example 23, 7-(3-chloro-5-fluoropyridin-2-yl)-1,3,6,7,8-hexahydro-2H-imidazo[4,5-b][1,6]naphthyridin-2-one] | 7.35 | 8.36
33 | O=c1[nH]c2cc3c(nc2[nH]1)CC[C@@H](c1cnn(C(F)F)c1Cl)C3 (single isomer, unassigned) [Example 64-B, (*R)-7-(5-chloro-1-(difluoromethyl)-1H-pyrazol-4-yl)-1,3,5,6,7,8-hexahydro-2H-imidazo[4,5-b]quinolin-2-one] | 8.75 | 9.30
